The source of these data is patent US20260265265A1, “NOVEL BENZIMIDAZOLONE DERIVATIVE COMPOUND AS AUTOTAXIN INHIBITOR” (LG CHEM, LTD., priority 2023, published 2026).

A word on the pIC50: it is the negative decadic logarithm of the IC50, by convention in mol/L.

pIC50: −log10 of the molar value.

The target of this experiment is T1, Recombinant Human ENPP-2/Autotaxin (Homo sapiens, UniProt Q13822).
T1 construct: purchased R&D systems 5255-EN
Briefly: LysoPLD activity measurement (autotaxin enzyme inhibition, choline release, TOOS reagent). Format: biochemical. The following applies: LysoPLD inhibitory activity; substrate 14:0 LysoPC; absorbance at 555 nm. Summed up:
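Autotaxin lysoPLD activity was read as choline released from 14:0 LysoPC, detected by TOOS reagent absorbance. Compound was preincubated 30 min, then substrate diluted to 300 μM was added and the reaction ran 90 minutes at 37° C. Controls contained 1% DMSO.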
Turning to `O=C(O)c1cc(F)cc(C2(n3c(=O)n(-c4ccc(C5CCOC5)cc4)c4cc(Cl)ccc43)CC2)c1` (centres unmarked) [Example 249, 3-(1-(5-chloro-2-oxo-3-(4-(tetrahydrofuran-3-yl)phenyl)-2,3-dihydro-1H-benzo[d]imidazol-1-yl)cyclopropyl)-5-fluorobenzoic acid], the negative logarithm of the IC50 (pIC50) is more than 8.00.
Take `O=C(O)c1cccc(C2(n3c(=O)n(-c4ccc(C5CCOC5)cc4)c4cc(Cl)ccc43)CC2)c1F` (centres unmarked) [Example 250, 3-(1-(5-chloro-2-oxo-3-(4-(tetrahydrofuran-3-yl)phenyl)-2,3-dihydro-1H-benzo[d]imidazol-1-yl)cyclopropyl)-2-fluorobenzoic acid]: the pIC50 is more than 8.00.
To `CC1(C)OCc2cc(-n3c(=O)n(C4(c5cccc(C(=O)O)c5)CC4)c4ccc(Cl)cc43)ccc21` [Example 251, 3-(1-(5-chloro-3-(1,1-dimethyl-1,3-dihydroisobenzofuran-5-yl)-2-oxo-2,3-dihydro-1H-benzo[d]imidazol-1-yl)cyclopropyl)benzoic acid] belongs more than 8.00.
For `CC1(C)OCc2cc(-n3c(=O)n(C4(c5cc(F)cc(C(=O)O)c5)CC4)c4ccc(Cl)cc43)ccc21` [Example 252, 3-(1-(5-chloro-3-(1,1-dimethyl-1,3-dihydroisobenzofuran-5-yl)-2-oxo-2,3-dihydro-1H-benzo[d]imidazol-1-yl)cyclopropyl)-5-fluorobenzoic acid], the pIC50 is more than 8.00.
As for `CC1(C)OCc2cc(-n3c(=O)n(C4(c5cccc(C(=O)O)c5F)CC4)c4ccc(Cl)cc43)ccc21` [Example 253, 3-(1-(5-chloro-3-(1,1-dimethyl-1,3-dihydroisobenzofuran-5-yl)-2-oxo-2,3-dihydro-1H-benzo[d]imidazol-1-yl)cyclopropyl)-2-fluorobenzoic acid], the pIC50 is 7.00 to 8.00.
Take `O=C1COc2cc(-n3c(=O)n(C4(c5cc(F)cc(C(=O)O)c5)CC4)c4ccc(Cl)cc43)ccc2N1` [Example 254, 3-(1-(5-chloro-2-oxo-3-(3-oxo-3,4-dihydro-2H-benzo[b][1,4]oxazin-7-yl)-2,3-dihydro-1H-benzo[d]imidazol-1-yl)cyclopropyl)-5-fluorobenzoic acid]: the pIC50 was more than 8.00.
In the case of `CN1CCOc2cc(-n3c(=O)n(C4(c5cc(F)cc(C(=O)O)c5)CC4)c4ccc(Cl)cc43)ccc21` [Example 255, 3-(1-(5-chloro-3-(4-methyl-3,4-dihydro-2H-benzo[b][1,4]oxazin-7-yl)-2-oxo-2,3-dihydro-1H-benzo[d]imidazol-1-yl)cyclopropyl)-5-fluorobenzoic acid], the pIC50 was more than 8.00.
For the molecule `O=C(O)c1cccc(C2(n3c(=O)n(-c4ccc(C5(O)CCC5)cc4)c4cc(Cl)ccc43)CC2)c1` [Example 256, 3-(1-(5-chloro-3-(4-(1-hydroxycyclobutyl)phenyl)-2-oxo-2,3-dihydro-1H-benzo[d]imidazol-1-yl)cyclopropyl)benzoic acid], the pIC50 is more than 8.00.
`O=C(O)c1cc(F)cc(C2(n3c(=O)n(-c4ccc(C5(O)CCC5)cc4)c4cc(Cl)ccc43)CC2)c1` [Example 257, 3-(1-(5-chloro-3-(4-(1-hydroxycyclobutyl)phenyl)-2-oxo-2,3-dihydro-1H-benzo[d]imidazol-1-yl)cyclopropyl)-5-fluorobenzoic acid]: the pIC50 is more than 8.00.
Turning to `O=C(O)c1cccc(C2(n3c(=O)n(-c4ccc(C5(O)COC5)cc4)c4cc(Cl)ccc43)CC2)c1` [Example 258, 3-(1-(5-chloro-3-(4-(3-hydroxyoxetan-3-yl)phenyl)-2-oxo-2,3-dihydro-1H-benzo[d]imidazol-1-yl)cyclopropyl)benzoic acid], the pIC50 was more than 8.00.
Consider `O=C(O)c1cccc(Cn2c(=O)n(-c3ccc(C4CCN(C5COC5)CC4)cc3)c3cc(Cl)ccc32)c1` [Example 259, 3-((5-chloro-3-(4-(1-(oxetan-3-yl)piperidin-4-yl)phenyl)-2-oxo-2,3-dihydro-1H-benzo[d]imidazol-1-yl)methyl)benzoic acid], for which the pIC50 is 6.00 to 7.00.
